{
  "source": "patent US20210161866A1",
  "about": "“DRUG FOR USE IN COMBINATION, AND USE THEREOF FOR PREPARING DRUGS FOR TREATMENT OF HIGH-GRADE BRAIN TUMORS IN RESPONSE TO INEFFECTIVE STANDARD TREATMENT FOR POSTOPERATIVE RECURRENCE” (SICHUAN JIUZHANG BIOLOGICAL SCIENCE AND TECHNOLOGY CO., LTD., priority 2018, published 2021)",
  "key": {"[1]": {"test_system": "glioblastoma that relapsed after surgery and on which the standard therapy failed", "test": "Tumor inhibition rate in animal model of glioblastoma", "format": "in vivo, rats", "details": "for Tumor inhibition rate (%) / Tumor weight: 5th day after drug-withdrawal", "method": "(§1) 1.1 Cell culture: The pathological tissue for cell culture was a tissue sample removed surgically from high-grade brain tumor that relapsed after surgery and on which the standard therapy failed. Glioblasts cells, high-grade anaplastic astrocytoma cells, high-grade anaplastic oligodendrocytoma cells, high-grade anaplastic oligoastrocytoma cells, and brain tumor cells with unclear pathological types, obtained by separation and culture of pathological tissue, were seeded in DMEM complete culture medium containing 10% FBS and routinely incubated in a 37° C., 5% carbon dioxide incubator under saturated humidity. TMZ was dissolved in DMSO solution, and the mass concentration of the stock solution was 100 mg/mL. Tumor cells in the logarithmic growth phase were diluted to obtain a cell suspension at 1×10^5 cells/mL, and the initial inducer dose 0.25 μg/mL of TMZ was added after routinely culturing for 24 h. The culture was continued for 15-20 days, and after stabilization of cell growth, the induced concentration of the drug was doubled, then the cells were further cultured for 15-20 d at each induced concentration. Thus, the final concentration of TMZ was 16.00 μg/mL, and various pathological types of cell suspensions were obtained.\n(§2) The cell suspension obtained in step 1 was inoculated into rats in situ, to prepare animal models of glioblastoma that relapsed after surgery and on which the standard therapy failed, and the animals were divided into test groups listed in the following table. […] The tumor inhibition rate was calculated."}, "[2]": {"test_system": "high-grade anaplastic astrocytoma that relapsed after surgery and on which the standard therapy failed", "test": "Tumor inhibition rate in animal model of high-grade anaplastic astrocytoma", "format": "in vivo, rats", "details": "for Tumor inhibition rate (%) / Tumor weight: 5th day after drug-withdrawal", "method": "as §1\n(§3) The cell suspension obtained in step 1 was inoculated into rats in situ, to prepare animal models of high-grade anaplastic astrocytoma that relapsed after surgery and on which the standard therapy failed, and the animals were divided into test groups listed in the following table. […] On the 5th day after drug-withdrawal, the size of the in situ tumor in the rat brain was observed, and the tumor was weighed. The tumor inhibition rate was calculated."}, "[3]": {"test_system": "high-grade anaplastic oligodendrocytoma that relapsed after surgery and on which the standard therapy failed", "test": "Tumor inhibition rate in animal model of high-grade anaplastic oligodendrocytoma", "format": "in vivo, rats", "details": "for Tumor inhibition rate (%) / Tumor weight: 5th day after drug-withdrawal", "method": "as §1\nas §2, with “high-grade anaplastic oligodendrocytoma” for “glioblastoma”"}, "[4]": {"test_system": "high-grade anaplastic oligoastrocytoma that relapsed after surgery and on which the standard therapy failed", "test": "Tumor inhibition rate in animal model of high-grade anaplastic oligoastrocytoma", "format": "in vivo, rats", "details": "for Tumor inhibition rate (%) / Tumor weight: 5th day after drug-withdrawal", "method": "as §1\nas §2, with “high-grade anaplastic oligoastrocytoma” for “glioblastoma”"}, "[5]": {"test_system": "brain tumor with unclear pathological types that relapsed after surgery and on which the standard therapy failed", "test": "Tumor inhibition rate in animal model of brain tumors with unclear pathological types", "format": "in vivo, rats", "details": "for Tumor inhibition rate (%) / Tumor weight: 5th day after drug-withdrawal", "method": "as §1\nas §3, with “brain tumor with unclear pathological types” for “high-grade anaplastic astrocytoma”"}, "[6]": {"test_system": "high-grade glioma relapsed after failure of standard treatment", "test": "Clinical trial of chlorogenic acid for injection, effectiveness by RANO standard and survival", "format": "in vivo, patients", "method": "A total of 23 subjects completed the test in this trial, including 5 patients with grade III gliomas and 18 patients with grade IV gliomas. […] The subjects included in this trial were all patients with high-grade glioma who relapsed after surgery and didn't response to the standard therapy. The standard treatment was chemotherapy and radiotherapy. […] Ineffective means tumor progression. […] The effectiveness evaluation was performed according to the RANO standard, and the specific RANO standards are as follows: [table] […] A total of 26 subjects were enrolled in the trial, 3 cases were released early, and 23 cases can be counted: […]"}, "[7]": {"details": "dose 35 mg/kg i.p. daily 10 days"}},
  "data": [
    {"smiles": "Cn1nnc2c(C(N)=O)ncn2c1=O", "note": "[temozolomide]", "values": [
      {"measurement": "Tumor inhibition rate (%)", "setting": "[1]; dose 10 mg/kg oral 5 days", "value": 14.6, "unit": "%"},
      {"measurement": "Tumor weight", "setting": "[1]; dose 10 mg/kg oral 5 days", "value": "1.75 ± 0.14"},
      {"measurement": "Tumor inhibition rate (%)", "setting": "[1]; dose 20 mg/kg oral 5 days", "value": 24.1, "unit": "%"},
      {"measurement": "Tumor weight", "setting": "[1]; dose 20 mg/kg oral 5 days", "value": "1.54 ± 0.10"},
      {"measurement": "Tumor inhibition rate (%)", "setting": "[2]; dose 10 mg/kg oral 5 days", "value": 13.3, "unit": "%"},
      {"measurement": "Tumor weight", "setting": "[2]; dose 10 mg/kg oral 5 days", "value": "1.95 ± 0.18"},
      {"measurement": "Tumor inhibition rate (%)", "setting": "[2]; dose 20 mg/kg oral 5 days", "value": 20.9, "unit": "%"},
      {"measurement": "Tumor weight", "setting": "[2]; dose 20 mg/kg oral 5 days", "value": "1.78 ± 0.11"},
      {"measurement": "Tumor inhibition rate (%)", "setting": "[3]; dose 10 mg/kg oral 5 days", "value": 15.5, "unit": "%"},
      {"measurement": "Tumor weight", "setting": "[3]; dose 10 mg/kg oral 5 days", "value": "1.80 ± 0.15"},
      {"measurement": "Tumor inhibition rate (%)", "setting": "[3]; dose 20 mg/kg oral 5 days", "value": 22.5, "unit": "%"},
      {"measurement": "Tumor weight", "setting": "[3]; dose 20 mg/kg oral 5 days", "value": "1.65 ± 0.14"},
      {"measurement": "Tumor inhibition rate (%)", "setting": "[4]; dose 10 mg/kg oral 5 days", "value": 13.1, "unit": "%"},
      {"measurement": "Tumor weight", "setting": "[4]; dose 10 mg/kg oral 5 days", "value": "1.72 ± 0.14"},
      {"measurement": "Tumor inhibition rate (%)", "setting": "[4]; dose 20 mg/kg oral 5 days", "value": 20.2, "unit": "%"},
      {"measurement": "Tumor weight", "setting": "[4]; dose 20 mg/kg oral 5 days", "value": "1.58 ± 0.12"},
      {"measurement": "Tumor inhibition rate (%)", "setting": "[5]; dose 10 mg/kg oral 5 days", "value": 16.0, "unit": "%"},
      {"measurement": "Tumor weight", "setting": "[5]; dose 10 mg/kg oral 5 days", "value": "1.83 ± 0.13"},
      {"measurement": "Tumor inhibition rate (%)", "setting": "[5]; dose 20 mg/kg oral 5 days", "value": 25.7, "unit": "%"},
      {"measurement": "Tumor weight", "setting": "[5]; dose 20 mg/kg oral 5 days", "value": "1.62 ± 0.14"}
    ]},
    {"smiles": "O=C(/C=C/c1ccc(O)c(O)c1)O[C@@H]1C[C@](O)(C(=O)O)C[C@@H](O)[C@H]1O", "note": "[Chlorogenic acid, chlorogenic acid]", "values": [
      {"measurement": "response rate", "setting": "[6]; 9 survival subjects with grade IV glioblastoma, 1 cycle", "value": 88.9, "unit": "%"},
      {"measurement": "response rate", "setting": "[6]; nine dead subjects with grade IV glioma, one cycle", "value": 11.1, "unit": "%"},
      {"measurement": "Tumor inhibition rate (%)", "setting": "[1]; [7]", "value": 52.2, "unit": "%"},
      {"measurement": "therapeutic effect in words", "setting": "[1]; summary of the glioblastoma model table", "value": "significant inhibitory effect"},
      {"measurement": "Tumor inhibition rate (%)", "setting": "[2]; [7]", "value": 50.2, "unit": "%"},
      {"measurement": "Tumor weight", "setting": "[2]; [7]", "value": "1.12 ± 0.10"},
      {"measurement": "therapeutic effect in words", "setting": "[2]; summary of the anaplastic astrocytoma model table", "value": "significant inhibitory effect"},
      {"measurement": "Tumor inhibition rate (%)", "setting": "[3]; [7]", "value": 52.6, "unit": "%"},
      {"measurement": "therapeutic effect in words", "setting": "[3]; summary of the anaplastic oligodendrocytoma model table", "value": "significant inhibitory effect"},
      {"measurement": "Tumor inhibition rate (%)", "setting": "[4]; [7]", "value": 47.0, "unit": "%"},
      {"measurement": "therapeutic effect in words", "setting": "[4]; summary of the anaplastic oligoastrocytoma model table", "value": "significant inhibitory effect"},
      {"measurement": "Tumor inhibition rate (%)", "setting": "[5]; [7]", "value": 44.5, "unit": "%"},
      {"measurement": "Tumor weight", "setting": "[5]; [7]", "value": "1.21 ± 0.11"},
      {"measurement": "therapeutic effect in words", "setting": "[5]; summary of the table for brain tumors with unclear pathological types", "value": "significant inhibitory effect"}
    ]}
  ]
}
